Test results reported in US6361788B1, “Synergistic biocide composition” (Thor Chemie GmbH, priority 1997, dated 2002).
Like-named read-outs stand apart in the source and are kept apart here.

Test system: Penicillium funiculosum
Test: MIC and synergy of MIT/BIT (1:1) and BNPD in Sabouraud maltose broth, 72 h
Assay type: cell-based
Conditions: for growth of the microorganism: MIT/BIT 0 ppm; for MIC: Talaromyces funiculosus
Method: In all the examples in which an active substance mixture of MIT and BIT as well as additionally a further active biocidal substance was used, the weight ratio of MIT to BIT was 1:1.
The synergy index is calculated according to the method of F. C. Kull et al., Applied Microbiology, Vol. 9 (1961), p. 538. Here the synergy index is calculated using the following formula:
Synergy index SI=Qa/QA+Qb/QB.
The synergy of an active substance that contains 2-bromo-2-nitropropane-1,3-diol (BNPD) in addition to MIT and BIT, against the microorganism Penicillium funiculosum is shown as in Example 1.
The test batches contained a Sabouraud maltose broth as a nutrient medium. The spore concentration was 10^6 per mL. The incubation time was 72 h at 25° C. Each sample was incubated on an incubation shaker at 120 rpm.

[1] = MIT/BIT 0.0% by wt, BNPD 100.0% by wt, 72 h

- MIC (MIT/BIT 0.0% by wt, BNPD 100.0% by wt, 72 h, read-out: MIC at BNPD concentration Qb): 600 µg/mL
- MIC (MIT/BIT 0.0% by wt, BNPD 100.0% by wt, 72 h, read-out: MIC at Total concentration MIT/BIT + BNPD): 600 µg/mL
- MIC (used alone, 72 h at 25° C., read-out: MIC value): 600 µg/mL
Compound: O=[N+]([O-])C(Br)(CO)CO [BNPD, 2-bromo-2-nitropropane-1,3-diol]
- Qb/QB [1]: 1.00
- Synergy index Qa/QA + Qb/QB [1]: 1.00
- growth of the microorganism (BNPD 25 ppm, 72 h): +
- growth of the microorganism (BNPD 50 ppm, 72 h): +
- growth of the microorganism (BNPD 100 ppm, 72 h): +
- growth of the microorganism (BNPD 150 ppm, 72 h): +
- growth of the microorganism (BNPD 200 ppm, 72 h): +
- growth of the microorganism (BNPD 300 ppm, 72 h): +
- growth of the microorganism (BNPD 400 ppm, 72 h): +
- growth of the microorganism (BNPD 600 ppm, 72 h): −
- growth of the microorganism (BNPD 800 ppm, 72 h): −
- growth of the microorganism (BNPD 1000 ppm, 72 h): −
